These results are taken from patent US20230257374A1, “NOVEL KRAS G12C PROTEIN INHIBITOR, PREPARATION METHOD THEREFOR, AND USE THEREOF” (INNOVENT BIOLOGICS (SUZHOU) CO., LTD., priority 2019, published 2023).

The target of one data set is T1, KRAS G12C protein (Homo sapiens, UniProt P01116, G12C).
T1 construct: H358 cells (ATCC, CRL-5807) expressing KRAS G12C protein; host or cells: H358 (NCI-H358) cells
Description: ERK protein phosphorylation assay (p-ERK) in H358 cells. It counts as cell-based. Set-up: scale not given here. The settings on record: H358 cells expressing KRAS G12C protein, 3 h incubation with compound; read-out: IC50, inhibiting phosphorylation of KRAS G12C protein-mediated downstream signaling (p-ERK). The method, boiled down:
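After paraformaldehyde fixation and methanol permeabilization, phospho-ERK detected by immunofluorescence read on an Odyssey CLx imager.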

A short description of another data set: in vitro. The settings on record: microsomes, pH 7.4.
Data set [1] has as its system H358 cell line (K-RAS G12C). The data set can be described thus: cells. It counts as cell-based, human. As to conditions: for IC50: Homo sapiens, NCI-H358, 96 h, 3D culture, CellTiter-Glo 3D, read on day 4, read-out: H358 (K-RAS G12C) IC50; for Selectivity (fold number of mutant vs. wild type): PC-9 IC50 vs. H358 IC50. As to the method:
(§1) a) On day 1, seed cells were placed in T75 a flask. b) On day 3, the medium was taken out and washed once with DPBS. c) Cells were trypsinized with 2 mL TrypLE™ Express enzyme at room temperature (RT) or 37° C. until cells detached. d) 5 mL of fresh medium was added to suspend the cells, and then the suspension was centrifuged at 1000 rpm and room temperature for 5 min. e) The supernatant was discarded, and the cells were resuspended in 5 mL of fresh medium and counted using Countess™ H. f) The cells were seeded back into the T75 flask for further culture or placed into an assay plate for 3D cell proliferation assay.
(§2) The cells were seeded at a density of 600 cells/well in a 384-well plate with 40 μL of medium per well and a final DMSO concentration of 0.5%. b) On day 4, a 3D CTG reagent was added to each well, followed by shaking at room temperature for 1 h. c) The signals were recorded using Envision.
(§3) a) Robustness was examined using 0.5% DMSO and data of blank control medium: H=mean (DMSO); L=mean (medium); SD (H)=STDEV (DMSO); SD (L)=STDEV (medium);
(§4) Y=peak valley value+(peak top value−peak valley value)/(1+10^((Log IC50−X)×HillSlope));
(§5) X: logarithm of compound concentration; Y: percent inhibition (% inhibition); Peak top and peak valley values: the plateau period units are the same as Y; log IC50: the same logarithmic unit as X; HillSlope: slope coefficient or Hill slope.
(ATP-based viability assays read luminescence as a measure of living cells.)

The test system of data set [2] is PC-9 cell line (K-RAS wild type). The data set can be described thus: cells. It counts as cell-based. The settings on record: Homo sapiens, PC-9, 96 h; 3D culture, CellTiter-Glo 3D, read on day 4. As to the method:
as §1, §2, §3, §4, §5

Data set [3] deals with MIA PaCa-2 cell line (K-RAS G12C). Description: cells. It counts as cell-based. As to conditions: for IC50: Homo sapiens, MIA PaCa-2, 96 h, 3D culture, CellTiter-Glo 3D, read on day 4, read-out: MIA PaCa-2 (K-RAS G12C) IC50; for Selectivity (fold number of mutant vs. wild type): PC-9 IC50 vs. MIA PaCa-2 IC50. As to the method: as §1, §2, §3, §4, §5
In data set [4] the test system is H1373 cell line (K-RAS G12C). The data set can be described thus: cells. It counts as cell-based. The settings on record: for IC50: Homo sapiens, NCI-H1373, 96 h, 3D culture, CellTiter-Glo 3D, read on day 4, read-out: H1373 (K-RAS G12C) IC50; for Selectivity (fold number of mutant vs. wild type): PC-9 IC50 vs. H1373 IC50. On the procedure:
as §1, §2, §3, §4, §5

The nature of data set [5]: Stability test in human plasma. As to conditions: for Remaining percentage (%) 0 min / Remaining percentage (%) 30 min / Remaining percentage (%) 60 min / Remaining percentage (%) 120 min / Remaining percentage (%) 180 min / Remaining percentage (%) 240 min: human plasma, 37° C.; for half-life at 5 μM: human, plasma.

T1 sequence (P01116 1-188 isoform P01116-2 G12C): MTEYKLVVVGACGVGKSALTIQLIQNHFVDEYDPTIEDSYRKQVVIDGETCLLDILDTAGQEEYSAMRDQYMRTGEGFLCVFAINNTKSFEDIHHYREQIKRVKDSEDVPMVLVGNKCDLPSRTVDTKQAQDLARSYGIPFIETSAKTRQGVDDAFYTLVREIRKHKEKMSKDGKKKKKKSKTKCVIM

With `[2H]C([2H])([2H])N1CCC[C@H]1COc1nc2c(c(N3CCN(C(=O)C=C)[C@@H](CC#N)C3)n1)CCN(c1cccc3cccc(C)c13)C2` [Compound 42, 2-((S)-1-acryloyl-4-(7-(8-methylnaphthalen-1-yl)-2-(((S)-1-(methyl-d3)pyrrolidin-2-yl)methoxy)-5,6,7,8-tetrahydropyrido[3,4-d]pyrimidin-4-yl)piperazin-2-yl)acetonitrile], the IC50 on KRAS G12C protein is < 1000 nM. In “in vitro” (ICR (CD-1), mouse), this molecule came in with a half-life at 1 μM of 22.8 min and a microsomal CLint at 1 μM of 60.9 µL/min/mg. Besides, in the data set “in vitro” (human), the half-life at 1 μM was determined as 27.2 min and the intrinsic clearance (microsomal CLint) at 1 μM turned out to be 51 µL/min/mg. Further, in data set [1], the concentration for half-maximal inhibition (IC50) is 0.62 nM and the “Selectivity (fold number of mutant vs. wild type)” value stood at 3823 fold. In data set [2], this molecule came in with an IC50 of 2370 nM. Besides, in data set [3], the 50% inhibitory concentration (IC50) came out at 0.51 nM and the “Selectivity (fold number of mutant vs. wild type)” value worked out at 4647 fold. In addition, in data set [4], the IC50 was found to be 0.26 nM and the “Selectivity (fold number of mutant vs. wild type)” value is listed as 9115 fold. In addition, in data set [5], the “Remaining percentage (%) 0 min” value is listed as 100.00%, the “Remaining percentage (%) 30 min” value is 90.36%, the “Remaining percentage (%) 60 min” value is 77.31% and the “Remaining percentage (%) 120 min” value amounted to 57.19%. Besides, in data set [5], the “Remaining percentage (%) 180 min” value came to 36.19%, the “Remaining percentage (%) 240 min” value turned out to be 27.49% and the half-life at 5 μM came out at 123 min.
For `[2H]C([2H])([2H])c1cccc2cccc(N3CCc4c(nc(OC[C@@H]5CCCN5C)nc4N4CCN(C(=O)C=C)[C@@H](CC#N)C4)C3)c12` [Compound 1, 2-((S)-1-acryloyl-4-(7-(8-(methyl-d3)naphthalen-1-yl)-2-(((S)-1-methylpyrrolidin-2-yl)methoxy)-5,6,7,8-tetrahydropyrido[3,4-d]pyrimidin-4-yl)piperazin-2-yl)acetonitrile], the IC50 at KRAS G12C protein is < 1000 nM. In “in vitro” (ICR (CD-1), mouse), this molecule had a half-life at 1 μM of 20.9 min and a microsomal CLint at 1 μM of 66.5 µL/min/mg. Also, in “in vitro” (human), the half-life at 1 μM worked out at 29.3 min and the microsomal CLint at 1 μM was 47.3 µL/min/mg. Besides, in data set [1], the IC50 stood at 0.55 nM and the “Selectivity (fold number of mutant vs. wild type)” value amounted to 8745 fold. This molecule also had a 50% inhibitory concentration (IC50) in data set [2] of 4810 nM. In addition, in data set [3], the IC50 was determined as 0.49 nM and the “Selectivity (fold number of mutant vs. wild type)” value is 9816 fold. In data set [4], the IC50 stood at 0.68 nM and the “Selectivity (fold number of mutant vs. wild type)” value is reported as 7074 fold. For the same molecule, in data set [5], the “Remaining percentage (%) 0 min” value was 100.00%, the “Remaining percentage (%) 30 min” value is reported as 92.80%, the “Remaining percentage (%) 60 min” value was 76.27% and the “Remaining percentage (%) 120 min” value was determined as 58.94%. For the same molecule, in data set [5], the “Remaining percentage (%) 180 min” value was determined as 39.27%, the “Remaining percentage (%) 240 min” value is reported as 25.75% and the half-life at 5 μM is 122 min.

By IC50 is commonly meant the point on the concentration scale where inhibition reaches its midpoint. The half-life is the time needed for the level to fall by half in the phase considered. Broadly, the microsomal CLint is a measure of how fast metabolising enzymes remove a compound, apart from limits set by blood flow.
